# Measurements published in paper PMC11952234, “Functional profiling of synthetic camel milk-derived peptides with implication in glucose transport and diabetes” (PLOS One, 2025).
# Values joined by “and” are separate entries in the source; they are usually repeats but may differ in a detail not shown here. Equal values may be shown once. Read-outs that look alike come from different tables or passages of the source. Marks after values point to notes of the source that are not given here. Residues, ends and D or L forms follow the SMILES beside them.
# Legend:
# [1] = test system: insulin receptor (IR); insulin-induced IR-Rluc/IRS1-YFP BRET in HEK293 cells; experiment: BRET assay of IR activation, peptides combined with insulin; format: cell-based, human; conditions: for insulin-induced BRET, % of insulin's response in the vehicle, Average: Average of Experiments 1-7; for insulin-induced BRET, % of insulin's response in the vehicle, Average / insulin-induced BRET, % of insulin's response in the vehicle / % of maximal BRET (insulin-induced): 1 μM insulin + 0.1 mg/ml peptide; for insulin-induced BRET, % of insulin's response in the vehicle, Average / insulin-induced BRET, % of insulin's response in the vehicle: HEK293, minimal data set for Figure 2; for % of maximal BRET (insulin-induced): 1 hour, 37°C, % of insulin's response in the vehicle taken as 100%, mean ± SD of five to seven independent experiments in triplicate; for profile on insulin-dependent BRET response in combined treatment (in words): compared to insulin alone (Vehicle)
# Protocol: (§1) HepG2 and HEK293 cells were maintained at 37°C, 5% CO2 in complete RPMI and Dulbecco’s modified Eagle’s medium (DMEM), respectively, containing 0.3 mg/ml glutamine, 100 IU/ml penicillin, and 100 µg/ml streptomycin) supplemented with 10% fetal calf serum (Gibco, Carlsbad, CA, USA). The transient transfection in HEK293 cells was carried out in 75 cm flask containing 10^7 cells using Lipofectamine 2000 and 5 µg of IR-Rluc and 5 µg of IRS1-YFP (for BRET and phosphorylation experiments) as previously described. All assays were performed 48 hours post-transfection.
# (§2) BRET technology was used for IR activation and its interaction with IRS1 as previously described. […] Following treatments, 10 μl of Coelenterazine h was added to a final concentration of 5 µ M and BRET measurements were carried out using the Tristar 2 multi-label plate reader (Berthold, Germany), allowing luminescence recording and signal integration at 480 nm and 540 nm.
# For BRET, the data were normalized by taking as 100% of the maximal insulin-induced BRET signal in the vehicle and analyzed using GraphPad Prism software (San Diego, CA, USA). Statistical analyses were performed statistical significance between the different treatments and conditions as indicated in the figures and tables and their captions. […] The significance is indicated in the figures by stars (****p-value < 0.0001, ***p-value < 0.001, ** p-value < 0.01, * p-value < 0.05), and the absence of stars means non-significant (p-value > 0.05). However, the two-way ANOVA was used for multiple comparisons to determine the statistical significance between the different peptides when compared to each other in the different assays as described in the tables. In this case, the different letters indicate statistically significant effects (p-value < 0.05), while the same letters indicate no significant difference between the different treatments compared to each other.
# [2] = target: T1, insulin receptor (IR); interaction of IR-Rluc with IRS1-YFP in HEK293 cells (Homo sapiens, UniProt P06213); experiment: BRET assay of IR activation (IR-Rluc/IRS1-YFP), single treatment, dose-response; format: cell-based; conditions: for Emax / BRET, % of the maximal response of insulin, Average: HEK293, 1 hour, minimal data set for Figure 1, average
# T1 construct: expressed in transfected cells; host or cells: HEK293 cells, transient co-transfection; plasmids provided by Dr. Tarik Issad (Cochin Institute, Paris)
# T1 sequence (P06213 28-758 limits assumed): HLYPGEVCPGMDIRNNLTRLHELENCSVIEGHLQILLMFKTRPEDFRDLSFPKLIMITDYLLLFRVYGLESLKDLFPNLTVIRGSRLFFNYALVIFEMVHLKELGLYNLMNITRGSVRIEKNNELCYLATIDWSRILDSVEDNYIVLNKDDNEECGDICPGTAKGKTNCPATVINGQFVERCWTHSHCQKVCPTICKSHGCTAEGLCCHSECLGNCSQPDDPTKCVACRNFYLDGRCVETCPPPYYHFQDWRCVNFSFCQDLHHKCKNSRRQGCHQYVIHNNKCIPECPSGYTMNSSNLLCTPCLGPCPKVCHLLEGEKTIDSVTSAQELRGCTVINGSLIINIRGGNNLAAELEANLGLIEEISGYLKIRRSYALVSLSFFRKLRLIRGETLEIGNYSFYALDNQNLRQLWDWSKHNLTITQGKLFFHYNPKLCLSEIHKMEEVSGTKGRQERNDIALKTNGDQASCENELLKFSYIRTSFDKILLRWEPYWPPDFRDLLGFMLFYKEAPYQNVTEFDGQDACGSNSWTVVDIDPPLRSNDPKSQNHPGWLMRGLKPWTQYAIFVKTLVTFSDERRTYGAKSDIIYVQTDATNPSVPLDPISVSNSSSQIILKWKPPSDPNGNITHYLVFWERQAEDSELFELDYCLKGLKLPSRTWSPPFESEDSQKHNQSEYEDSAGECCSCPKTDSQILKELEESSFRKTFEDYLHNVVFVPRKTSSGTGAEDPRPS
# T1 sequence (P06213 763-1382 limits assumed): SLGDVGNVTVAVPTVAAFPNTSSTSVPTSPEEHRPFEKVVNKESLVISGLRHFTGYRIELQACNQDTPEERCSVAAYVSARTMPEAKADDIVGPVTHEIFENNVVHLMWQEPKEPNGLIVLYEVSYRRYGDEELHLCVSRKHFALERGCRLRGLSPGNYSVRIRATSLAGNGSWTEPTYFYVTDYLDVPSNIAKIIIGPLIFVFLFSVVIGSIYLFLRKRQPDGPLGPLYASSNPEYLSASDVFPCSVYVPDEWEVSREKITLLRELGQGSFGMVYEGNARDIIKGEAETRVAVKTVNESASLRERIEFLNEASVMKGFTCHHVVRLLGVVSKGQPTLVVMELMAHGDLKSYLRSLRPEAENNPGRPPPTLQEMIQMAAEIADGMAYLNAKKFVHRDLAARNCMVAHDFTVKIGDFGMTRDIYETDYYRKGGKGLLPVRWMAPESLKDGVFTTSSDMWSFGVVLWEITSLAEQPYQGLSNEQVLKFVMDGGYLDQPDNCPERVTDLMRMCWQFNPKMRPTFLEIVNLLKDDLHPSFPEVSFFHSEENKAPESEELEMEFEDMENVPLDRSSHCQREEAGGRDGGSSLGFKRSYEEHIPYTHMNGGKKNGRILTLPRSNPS
# Protocol: as §1, §2
# Statistical analyses were performed statistical significance between the different treatments and conditions as indicated in the figures and tables and their captions. […] The significance is indicated in the figures by stars (****p-value < 0.0001, ***p-value < 0.001, ** p-value < 0.01, * p-value < 0.05), and the absence of stars means non-significant (p-value > 0.05). However, the two-way ANOVA was used for multiple comparisons to determine the statistical significance between the different peptides when compared to each other in the different assays as described in the tables.
# [3] = test system: IR phosphorylation (pIR-Tyr1334) in HepG2 cells; experiment: IR phosphorylation by western blot in HepG2 cells; format: cell-based, human; conditions: 10 minutes, 37°C
# Protocol: (§3) Following treatment, cells were then lysed with RIPA lysis buffer and thereafter centrifuged at 12000 × g for 30 minutes. Thereafter, the extracted cell lysate proteins were quantified using the bicinchoninic acid (BCA) protein assay. To examine the phosphorylation status of IR and AKT, 30-40 μg of proteins were loaded on 10% SDS-PAGE gel followed by western blot using the following antibodies: the mouse monoclonal anti-phospho-IR (pIR-Tyr1334)(1:1000 dilution) and the mouse monoclonal anti-phospho-AKT (pAKT-S473)(1:2000 dilution) as previously described. The corresponding total proteins loaded were also analyzed in parallel using the specific antibodies against the native forms of the different proteins. Densitometry analysis of the different western blots was performed using Image Studio Version 5.2 software from LICOR (Lincoln, Nebraska, USA).
# [4] = test system: HepG2 cells; experiment: Glucose uptake assay (Glucose Uptake-Glo) in HepG2 cells; format: cell-based, human; conditions: 1 hour, 37°C; for glucose uptake, specific luminescence signal, Average: Average of Experiments 1-5, HepG2, 0.1 mg/ml peptide or 1 μM insulin, minimal data set for Figure 5; for % of glucose uptake: HepG2 cells, 0.1 mg/ml peptide or 1 μM insulin, % of insulin's response taken as 100%, mean ± SD of five independent experiments in triplicate
# Protocol: Glucose uptake in HepG2 cells was carried out using Glucose Uptake-Glo Assay (Promega). For this, cells seeded in a 96-well white plate (50,000 cells/well) were first washed with PBS and starved in phenol red-, glucose-, and serum-free medium (Dulbecco’s modified Eagle’s medium containing 0.01 mM HEPES, 0.3 mg/ml glutamine, 100 IU/ml penicillin, and 100 µg/ml streptomycin). […] The treatment was removed, and the cells were washed once with PBS and then incubated with 50 μL/well of freshly prepared 2-deoxyglucose (500 μM) for 10 minutes at room temperature. The uptake process was stopped and neutralized, followed by the addition of 50 μl/well of 2-deoxyglucose-6-phosphate (2DG6P) detection reagent and incubation for 15-60 minutes at room temperature. The glucose-6-phosphate dehydrogenase (G6PDH) oxidizes 2DG6P to 6-phosphodeoxygluconate (6PDG) and reduces NADP + to NADPH. The reductase uses NADPH to convert the proluciferin to luciferin, which is then used by Ultra-Glo™ recombinant luciferase to produce luminescence. This luminescence, proportional to the amount of 2-deoxyglucose transported inside the cells upon treatment, was then measured using a 0.3–1 second integration on GloMax® Discover luminometer according to Glucose Uptake-Glo™ protocol.
# [5] = test system: AKT phosphorylation (pAKT-S473) in HepG2 cells; experiment: AKT phosphorylation by western blot in HepG2 cells; format: cell-based, human; conditions: 0.1 mg/ml peptide, 10 minutes, 37°C, 3 independent experiments
# Protocol: as §3
# [6] = HEK293 cells, 0.1 mg/ml peptide + 1 μM insulin
molecule,measurement,setting,value
CSCC[C@H](NC(=O)[C@H](Cc1c[nH]cn1)NC(=O)[C@H](CS)NC(=O)[C@@H]1CCCN1C(=O)[C@H](CC(C)C)NC(=O)[C@@H]1CCCN1C(=O)[C@@H]1CCCN1C(=O)[C@H](CC(C)C)NC(=O)[C@H](CS)NC(=O)[C@H](CS)NC(=O)[C@H](C)NC(=O)[C@@H](NC(=O)[C@H](C)NC(=O)[C@@H]1CCCN1)C(C)C)C(=O)O [Peptide P2] (H-PAVACCLPPLPCHM-OH; N-terminus and C-terminus assumed),"insulin-induced BRET, % of insulin's response in the vehicle, Average",[1],52.0
same,"insulin-induced BRET, % of insulin's response in the vehicle",[1]; Experiment 1,76.0
same,"insulin-induced BRET, % of insulin's response in the vehicle",[1]; Experiment 2,33.7
same,"insulin-induced BRET, % of insulin's response in the vehicle",[1]; Experiment 3,14.3
same,"insulin-induced BRET, % of insulin's response in the vehicle",[1]; Experiment 4,58.1
same,"insulin-induced BRET, % of insulin's response in the vehicle",[1]; Experiment 5,54.3
same,"insulin-induced BRET, % of insulin's response in the vehicle",[1]; Experiment 6,70.5
same,"insulin-induced BRET, % of insulin's response in the vehicle",[1]; Experiment 7,56.8
same,% of maximal BRET (insulin-induced),[1]; HEK293 cells,52 ± 8% and 52 ± 8^b %
same,decrease of the insulin-dependent BRET response,[1]; [6],~ 50%
same,profile on insulin-dependent BRET response in combined treatment (in words),[1]; [6],antagonistic
same,Emax,"[2]; HEK293, read-out: BRET, % of the maximal response of insulin, Average, peptide 0.001 mg/ml, 37°C",6.9%
same,Emax,"[2]; HEK293, read-out: BRET, % of the maximal response of insulin, Average, peptide 0.005 mg/ml, 37°C",19.9%
same,Emax,"[2]; HEK293, read-out: BRET, % of the maximal response of insulin, Average, peptide 0.01 mg/ml, 37°C",32.1%
same,Emax,"[2]; HEK293, read-out: BRET, % of the maximal response of insulin, Average, peptide 0.05 mg/ml, 37°C",47.3%
same,Emax,"[2]; HEK293, read-out: BRET, % of the maximal response of insulin, Average, peptide 0.1 mg/ml, 37°C",59.2%
same,Emax,"[2]; HEK293, read-out: BRET, % of the maximal response of insulin, Average, peptide 0.5 mg/ml, 37°C",68.7%
same,Emax,"[2]; HEK293, read-out: BRET, % of the maximal response of insulin, Average, peptide 1 mg/ml, 37°C",58.9%
same,"insulin-induced IR phosphorylation, combined treatment (in words)",[3]; 1 μM insulin + 0.1 mg/ml peptide,no inhibitory action
same,"glucose uptake, specific luminescence signal, Average",[4],1417300
same,% of glucose uptake,[4],56 ± 9^b %
MPVQA [Peptide P4],"insulin-induced BRET, % of insulin's response in the vehicle, Average",[1],113.5
same,"insulin-induced BRET, % of insulin's response in the vehicle",[1]; Experiment 1,76.2
same,"insulin-induced BRET, % of insulin's response in the vehicle",[1]; Experiment 2,79.6
same,"insulin-induced BRET, % of insulin's response in the vehicle",[1]; Experiment 3,121.9
same,"insulin-induced BRET, % of insulin's response in the vehicle",[1]; Experiment 4,113.1
same,"insulin-induced BRET, % of insulin's response in the vehicle",[1]; Experiment 5,93.8
same,"insulin-induced BRET, % of insulin's response in the vehicle",[1]; Experiment 6,168.9
same,"insulin-induced BRET, % of insulin's response in the vehicle",[1]; Experiment 7,141.2
same,% of maximal BRET (insulin-induced),[1]; HEK293 cells,114 ± 13^a %
same,profile on insulin-dependent BRET response in combined treatment (in words),[1]; [6],non-efficient
same,% of maximal BRET,"[2]; HEK293 cells co-expressing IR-Rluc and IRS1-YFP, single treatment 60 min, 37°C, maximal BRET increase of dose-response, % of insulin's response taken as 100%, mean ± SD of four independent experiments in triplicate",13 ± 1^c %
same,BRET increase in single treatment (in words),"[2]; HEK293 cells, peptides applied alone",did not promote any significant BRET increase
same,"BRET, % of the maximal response of insulin, Average","[2]; peptide 0.001 mg/ml, 37°C",10.7
same,"BRET, % of the maximal response of insulin, Average","[2]; peptide 0.005 mg/ml, 37°C",9.6
same,"BRET, % of the maximal response of insulin, Average","[2]; peptide 0.01 mg/ml, 37°C",15.8
same,"BRET, % of the maximal response of insulin, Average","[2]; peptide 0.05 mg/ml, 37°C",14.2
same,"BRET, % of the maximal response of insulin, Average","[2]; peptide 0.1 mg/ml, 37°C",10.1
same,"BRET, % of the maximal response of insulin, Average","[2]; peptide 0.5 mg/ml, 37°C",15.2
same,"BRET, % of the maximal response of insulin, Average","[2]; peptide 1 mg/ml, 37°C",10.9
same,"IR phosphorylation, single treatment (in words)","[3]; 0.1 mg/ml peptide, 3 independent experiments",led to IR and AKT phosphorylation
same,"AKT phosphorylation, single treatment (in words)",[5],led to IR and AKT phosphorylation
same,"glucose uptake, specific luminescence signal, Average",[4],1978100
same,% of glucose uptake,[4],78 ± 18^b %
